Test results: ChEMBL document CHEMBL3045758, “Quantitative Structure-Activity Relationships of Fungicidal N-Phenylformamidoximes” (J Pestic Sci, 1992)

How the values were obtained:
[1] = 1-octanol/water distribution coefficient, log P of the compound; type: physicochemical
[2] = system: Phaseolus vulgaris; test: Phytotoxicity against Phaseolus vulgaris (kidney bean) assessed as necrosis of leaf at 100 ppm after 7 days in greenhouse conditions; type: organism-based; settings: in vivo, 168 h
[3] = system: Botrytis cinerea; test: Fungicidal activity against benzimidazole-resistant Botryotinia fuckeliana after 48 hr by poisoned food technique; type: functional, organism-based; settings: Botrytis cinerea, 48 h; read-out: pEC50 (converted)
[4] = system: Botrytis cinerea; test: Fungicidal activity against benzimidazole-resistant Botryotinia fuckeliana infected kidney bean leaf at 100 ppm after 7 days in greenhouse conditions by detached leaf test; type: functional
[5] = system: Botrytis cinerea; test: Fungicidal activity against benzimidazole-resistant Botryotinia fuckeliana at 6.2 ppm after 48 hr by poisoned food technique; type: functional
[6] = system: Botrytis cinerea; test: Fungicidal activity against benzimidazole-resistant Botryotinia fuckeliana at 200 ppm after 48 hr by poisoned food technique; type: functional
[7] = system: Botrytis cinerea; test: Fungicidal activity against benzimidazole-resistant Botryotinia fuckeliana at 25 ppm after 48 hr by poisoned food technique; type: functional

Row | Compound | logP [1] | Activity [2] | EC50 [3] [nM] | Activity [4] [%] | Activity [5] [%] | Activity [6] [%] | Activity [7] [%]
1 | C=CCOc1c(Cl)cc(N/C=N/OCC)cc1Cl | 4.3 | Non-toxic | 34.7 | – | – | – | –
2 | C#CCOc1c(Cl)cc(NC=NOCC)cc1Cl | 3.6 | Non-toxic | 17.4 | – | – | – | –
3 | CCO/N=C/Nc1cc(Cl)c(OCC(C)C)c(Cl)c1 | 5 | <= 10% | 16200 | – | – | – | –
4 | CC#CCOc1c(Cl)cc(N/C=N/OCC)cc1Cl | 4 | Non-toxic | 166 | – | – | – | –
5 | CCO/N=C/Nc1cc(Cl)c(OCC#N)c(Cl)c1 | 3.1 | Non-toxic | 174 | – | – | – | –
6 | CCO/N=C/Nc1cc(Cl)c(OCOC)c(Cl)c1 | 3.7 | Non-toxic | 174 | – | – | – | –
7 | CCO/N=C/Nc1cc(Cl)c(OCCCl)c(Cl)c1 | 4 | Non-toxic | 32.4 | – | – | – | –
8 | C#CCc1c(Cl)cc(N/C=N/O)cc1Cl | 2.8 | Non-toxic | 77.6 | – | – | – | –
9 | C#CCc1c(Cl)cc(N/C=N/OCCC)cc1Cl | 4 | Non-toxic | 33.1 | – | – | – | –
10 | CCO/N=C/Nc1ccccc1 | – | Non-toxic | – | <25 | <25 | <25 | <25
11 | CCO/N=C/Nc1ccccc1Cl | – | <= 10% | – | <25 | <25 | 100 | <25
12 | CCO/N=C/Nc1cccc(Cl)c1 | – | <= 10% | – | <25 | <25 | 50 | <25
13 | CCO/N=C/Nc1ccc(Cl)cc1 | – | Non-toxic | – | <25 | <25 | 70 | <25
14 | CCO/N=C/Nc1ccccc1CC | – | Non-toxic | – | <25 | 26 | 100 | 100
15 | CCO/N=C/Nc1cccc(CC)c1 | – | Non-toxic | – | <25 | <25 | 70 | <25
16 | CCO/N=C/Nc1ccc(CC)cc1 | – | Non-toxic | – | <25 | <25 | 26 | <25

Row | Compound | logP [1] | Activity [2] | EC50 [3] [nM] | Activity [4] [%] | Activity [5] [%] | Activity [6] [%] | Activity [7] [%]
17 | CCO/N=C/Nc1ccccc1OCC | – | Non-toxic | – | <25 | <25 | 100 | 100
18 | CCO/N=C/Nc1cccc(OCC)c1 | – | Non-toxic | – | <25 | <25 | 100 | 26
19 | CCO/N=C/Nc1ccc(OCC)cc1 | – | Non-toxic | – | <25 | <25 | 50 | <25
20 | CCO/N=C/Nc1cccc(Cl)c1Cl | – | 11% | – | <25 | <25 | 100 | <25
21 | CCO/N=C/Nc1ccc(Cl)cc1Cl | – | <= 10% | – | <25 | <25 | 100 | <25
22 | CCO/N=C/Nc1cc(Cl)ccc1Cl | – | Non-toxic | – | <25 | <25 | 70 | <25
23 | CCO/N=C/Nc1c(Cl)cccc1Cl | – | > 31% | – | <25 | <25 | 90 | <25
24 | CCO/N=C/Nc1ccc(Cl)c(Cl)c1 | – | 11% | – | <25 | <25 | 70 | <25
25 | CCO/N=C/Nc1c(C)cccc1C | – | 11% | – | <25 | <25 | <25 | <25
26 | CCO/N=C/Nc1cc(C)cc(C)c1 | – | Non-toxic | – | <25 | <25 | 90 | <25
27 | CCO/N=C/Nc1cc(OCC)ccc1OCC | – | Non-toxic | – | <25 | 70 | 100 | 100
28 | CCO/N=C/Nc1c(Cl)c(Cl)cc(Cl)c1Cl [N'-ETHOXY-N-(2,3,5,6-TETRACHLOROPHENYL)FORMIMIDAMIDE] | – | Non-toxic | – | <25 | <25 | <25 | <25
29 | CCO/N=C/Nc1cc(Cl)c(Cl)cc1Cl [N'-ETHOXY-N-(2,4,5-TRICHLOROPHENYL)FORMIMIDAMIDE] | – | Non-toxic | – | <25 | <25 | 26 | <25
30 | CCO/N=C/Nc1c(Cl)cc(Cl)cc1Cl [N'-ETHOXY-N-(2,4,6-TRICHLOROPHENYL)FORMIMIDAMIDE] | – | 11% | – | <25 | <25 | 100 | <25
31 | CCO/N=C/Nc1cc(C)cc(C)c1OCC [N'-ETHOXY-N-(2-ETHOXY-3,5-DIMETHYLPHENYL)FORMIMIDAMIDE] | – | Non-toxic | – | <25 | 50 | 100 | 100
